Laboratory results reported in the NIST ThermoML archive (doi:10.1021/acs.jced.7b00543).

Conditions: Capillary rise

C=C(F)C(F)(F)F [2,3,3,3-tetrafluoro-1-propene]
Conditions | surface tension liquid-gas [mN/m]
242.21 K | 13.25
244.21 K | 12.98
245.22 K | 12.84
248.08 K | 12.45
250.1 K | 12.18
252.25 K | 11.9
255.34 K | 11.49
258.24 K | 11.11
260.34 K | 10.83
263.12 K | 10.47
265.13 K | 10.21
268.11 K | 9.828
270.15 K | 9.568
275.55 K | 8.889
278.58 K | 8.512
280.24 K | 8.307
283.24 K | 7.94
285.32 K | 7.688
288 K | 7.364
290.08 K | 7.117
296.04 K | 6.415
300.01 K | 5.956
305.09 K | 5.382
310.09 K | 4.829
312.28 K | 4.591
315.2 K | 4.279
317.48 K | 4.038
320.48 K | 3.726
322.47 K | 3.523
325.1 K | 3.259
327.3 K | 3.041
330.27 K | 2.752
332.21 K | 2.568
335.26 K | 2.284
337.53 K | 2.077
340.11 K | 1.85
342.54 K | 1.64
345.13 K | 1.425
347.36 K | 1.244
350.21 K | 1.023
355.63 K | 0.637
360.23 K | 0.349
362.34 K | 0.234
365 K | 0.108

CC(C)C [2-methylpropane]
Conditions | surface tension liquid-gas [mN/m]
280.34 K | 11.99
283.22 K | 11.79
285.45 K | 11.48
288.02 K | 11.17
290.14 K | 10.99
293.53 K | 10.6
296.42 K | 10.23
299.37 K | 9.829
302.08 K | 9.595
305.41 K | 9.223
307.43 K | 9.03
310.75 K | 8.607
313.15 K | 8.314
315.62 K | 7.999
318.22 K | 7.683
320.46 K | 7.584
323.41 K | 7.172
325.44 K | 7.013
327.83 K | 6.731
329.85 K | 6.538
330.18 K | 6.476
332.56 K | 6.214
335.58 K | 5.925
338.1 K | 5.686
340.42 K | 5.479
342.74 K | 5.22
345.39 K | 4.972
347.26 K | 4.847
350.12 K | 4.526

F/C=C/C(F)(F)F [trans-1,3,3,3-tetrafluoropropene]
Conditions | surface tension liquid-gas [mN/m]
242.01 K | 15.66
245.14 K | 15.23
248.08 K | 14.82
250.11 K | 14.54
255.11 K | 13.85
260.07 K | 13.18
265.12 K | 12.51
268.98 K | 12
271.51 K | 11.67
275.65 K | 11.13
280.14 K | 10.55
285.03 K | 9.923
288.19 K | 9.525
290.19 K | 9.275
293.1 K | 8.913
295.07 K | 8.67
300.07 K | 8.059
305.06 K | 7.46
310.06 K | 6.873
315.05 K | 6.304
320.05 K | 5.724
325.03 K | 5.171
330.05 K | 4.621
335.09 K | 4.087
340.08 K | 3.565
345.07 K | 3.094
350.07 K | 2.589
355.03 K | 2.132
360.08 K | 1.605
365.09 K | 1.171
370.07 K | 0.761
375.14 K | 0.395
380.09 K | 0.109
